This is an account of results in article PMC7926937, “Suramin Targets the Conserved Ligand-Binding Pocket of Human Raf1 Kinase Inhibitory Protein” (Molecules, 2021).

In data set [1] the target is T1, hRKIP (Homo sapiens, UniProt P30086).
T1 construct: made in house; host or cells: E. coli
On the set-up: method as in PMID 30137201. Conditions: PE binding to hRKIP ref 34; cited from earlier work.

The target in data set [2] is T1, hRKIP. Nature of the data set: BLI assay of ligand binding to wild-type hRKIP. How it is done: (§1) Both unlabeled and ^15N-labeled hRKIP proteins were prepared as described previously. Eight hRKIP mutants (P74L, Y81A, S109A, P111L, P112L, K113A, W173A, and Y181A) were generated by site-directed mutagenesis using the vector of pReceiver-B01a-RKIP as the template and confirmed by DNA sequencing. All protein purifications were performed at 4 °C. Protein purities were verified by polyacrylamide gel electrophoresis, and protein concentrations were measured by NanoVue (GE Heathcare Co, Boston, MA, USA).
(§2) The interaction between hRKIP and suramin was detected by using the ForteBio Octet Red system (ForteBio, Inc, San Francisco, CA, USA). The wild-type His-tagged hRKIP protein or its mutant was immobilized onto NTA reactive biosensors, and the captured biosensors were individually dipped into the wells containing various concentrations of suramin (25, 50, 100, 200, and 400 μM). The association at each suramin concentration was detected for 900 s, while the dissociation was monitored for 1800 s. The sensors loading hRKIP without suramin were used as controls to correct baseline drifts. The wells containing various concentrations of suramin without loading protein served as references. The association and dissociation responses were corrected and processed using Octet Data Analysis Software (Version 7.0, ForteBio, Inc, San Francisco, CA, USA). The interferometry data were fitted using the 1:1 Langmuir binding model.

The target in a further data set is T2, hRKIP P112L mutant (Homo sapiens, UniProt P30086, P112L).
T2 construct: made in house; host or cells: E. coli
T2 sequence (P30086 1-187 P112L): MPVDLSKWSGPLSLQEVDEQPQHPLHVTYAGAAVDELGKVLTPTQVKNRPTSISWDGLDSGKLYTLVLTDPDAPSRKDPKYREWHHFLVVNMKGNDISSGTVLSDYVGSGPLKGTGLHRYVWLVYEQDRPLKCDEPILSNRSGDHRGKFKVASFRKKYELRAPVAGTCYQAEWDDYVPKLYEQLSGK
Nature of the data set: BLI assay of suramin binding to hRKIP mutant P112L. As for the experimental part: as §1, §2

The next data set concerns the target T3, hRKIP K113A mutant (Homo sapiens, UniProt P30086, K113A).
T3 construct: made in house; host or cells: E. coli
T3 sequence (P30086 1-187 K113A): T2 sequence (P30086 1-187 P112L) with L112P, K113A
Nature of the data set: BLI assay of suramin binding to hRKIP mutant K113A. How it is done:
as §1, §2

The next data set has as its target T4, hRKIP Y181A mutant (Homo sapiens, UniProt P30086, Y181A).
T4 construct: made in house; host or cells: E. coli
T4 sequence (P30086 1-187 Y181A): T2 sequence (P30086 1-187 P112L) with L112P, Y181A
Nature of the data set: BLI assay of suramin binding to hRKIP mutant Y181A. How it is done:
as §1, §2

A further data set addresses T5, hRKIP Y81A mutant (Homo sapiens, UniProt P30086, Y81A).
T5 construct: made in house; host or cells: E. coli
T5 sequence (P30086 1-187 Y81A): T2 sequence (P30086 1-187 P112L) with Y81A, L112P
Nature of the data set: BLI assay of suramin binding to hRKIP mutant Y81A. How it is done: as §1, §2

The subject of data set [3] is hRKIP-mediated Ras/Raf1/MEK/ERK signal pathway. Nature of the data set: ERK phosphorylation (Western blot) in hRKIP-transfected HEK293T cells. Conditions: 160 µM suramin, 30 min before EGF stimulation, compared with no suramin treatment. Type of data set: cell-based, human. How it is done: (§3) Human HEK293T cells were used as control group. HEK293T cells were first transfected with the exogenous hRKIP gene (the hRKIP-treated group), then the hRKIP transfected cells were serum starved overnight (10 h) and then incubated with 160 μM suramin for 30 min before EGF stimulation (the hRKIP-suramin-treated group). The transfection process was performed as following: 4 μg of pcDNA3.0-hRKIP was mixed with 75 μL lipotap (Beyotime, China), and the mixture was incubated with HEK293T cell in the dulbecco’s modified eagle medium (DMEM) with 100 units/mL penicillin (Sagon, Shanghai, China), 100 μg/mL streptomycin (Sagon, Shanghai, China) and 10% fetal bovine serum (Hyclone, Logan, UT, USA) for 6 h. Then the lipotap-DNA mixture was removed, and the transfected cell was further cultured in fresh medium. For all the three groups, the cells were cultured in DMEM supplemented with serum and […] at 37 °C. At 70% confluency, 10 ng/mL EGF was used to stimulate the Ras/Raf/MEK/ERK signal pathway for 5 min. The reaction was stopped by phosphate-buffered saline. […]
(§4) Cellular assay data are presented as mean ± standard deviation (SD). […] Statistical significances were determined using Student’s t-test. p < 0.05 was considered statistically significant.
In general terms: In western blotting, separated proteins are transferred to a membrane and probed.

The target of the next data set is T6, hRKIP P74L mutant (Homo sapiens, UniProt P30086, P74L).
T6 construct: made in house; host or cells: E. coli
T6 sequence (P30086 1-187 P74L): T2 sequence (P30086 1-187 P112L) with P74L, L112P
Nature of the data set: BLI assay of suramin binding to hRKIP mutant P74L. How it is done: as §1, §2

For a further data set, the system named is HEK293T cell. Nature of the data set: MTS experiments on HEK293T cells. To be noted: Homo sapiens, HEK-293T. Type of data set: cell-based.
The target of the next data set is T7, hRKIP W173A mutant (Homo sapiens, UniProt P30086, W173A).
T7 construct: made in house; host or cells: E. coli
T7 sequence (P30086 1-187 W173A): T2 sequence (P30086 1-187 P112L) with L112P, W173A
Nature of the data set: BLI assay of suramin binding to hRKIP mutant W173A. How it is done: as §1, §2

The target in the next data set is T8, hRKIP S109A mutant (Homo sapiens, UniProt P30086, S109A).
T8 construct: made in house; host or cells: E. coli
T8 sequence (P30086 1-187 S109A): T2 sequence (P30086 1-187 P112L) with S109A, L112P
Nature of the data set: BLI assay of suramin binding to hRKIP mutant S109A. As for the experimental part:
as §1, §2

Data set [4] concerns HEK293T cells transfected with hRKIP. Nature of the data set: Viability of HEK293T cells transfected with hRKIP. Type of data set: cell-based, human. As for the experimental part: We further explored the effects of suramin treatment on hRKIP-mediated Ras/Raf1/MEK/ERK signal pathway by detecting the phosphorylation level of ERK, which could only be activated by MEK [37]. Principally, hRKIP binding with Raf1 inhibits the phosphorylation of Raf1, thereby blocking the following ERK phosphorylation and downregulating the MAPK pathway. […] The transfected cells were then treated with 160 μM suramin. The suramin concentration was experimentally determined as the maximal tolerant concentration for cell viability (Figure 4c), which was consistent with that used usually in clinical patients. […] As a result, the free Raf1 kinase was phosphorylated and the Ras/Raf1/MEK/ERK pathway was promoted with an enhanced phosphorylation level of the following ERK kinase.
Figure 4 Effects of suramin treatment on hRKIP-mediated Ras/Raf1/MEK/ERK pathway in HEK293 cells (a,b) Western blot analysis for the effect of suramin treatment on hRKIP-mediated ERK phosphorylation;(c) Effect of suramin treatment on viabilities of HEK293T cells transfected with hRKIP. (d,e) Western blot analysis for the effect of suramin on the ERK phosphorylation of HEK293T cell. * p <0.1; *** p <0.001; **** p <0.0001, n = 3 for each group.

The test system of data set [5] is phosphorylation level of p-ERK in HEK293T cell. Nature of the data set: ERK phosphorylation (Western blot) in HEK293T cells. Type of data set: cell-based, human. To be noted: 160 μM suramin. As for the experimental part: as §3, §4

Changes are numbered by the printed parent chain. Read-outs that look alike come from different tables or passages of the source.

T1 sequence (P30086 whole entry): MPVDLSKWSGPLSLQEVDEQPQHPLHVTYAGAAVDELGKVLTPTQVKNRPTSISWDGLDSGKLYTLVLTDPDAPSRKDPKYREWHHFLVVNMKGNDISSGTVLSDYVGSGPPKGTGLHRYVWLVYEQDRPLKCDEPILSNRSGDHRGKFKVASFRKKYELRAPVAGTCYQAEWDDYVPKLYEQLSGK

One may read the Kd as the free concentration of one partner at which half of the binding sites on the other are occupied at equilibrium, for simple one-to-one binding. For orientation: kon means the rate constant with which the complex forms. Take `NCCOP(=O)(O)O` [PE, oO-phosphorylethanolamine]: the Kd at hRKIP [1] was 8810 µM. On hRKIP [2] (BLI, wild-type RKIP), this compound displayed a kon of 3.0 M⁻¹ s⁻¹. Further, the “dissociation rate (koff)” value at hRKIP [2] (BLI, wild-type hRKIP) was found to be 0.0264 s⁻¹.
As a reminder, the koff is the rate constant with which the complex falls apart. What is called IC50 is the point on the concentration scale where inhibition reaches its midpoint. A higher IC50 goes with lower potency. As to `Cc1ccc(C(=O)Nc2ccc(S(=O)(=O)O)c3cc(S(=O)(=O)O)cc(S(=O)(=O)O)c23)cc1NC(=O)c1cccc(NC(=O)Nc2cccc(C(=O)Nc3cc(C(=O)Nc4ccc(S(=O)(=O)O)c5cc(S(=O)(=O)O)cc(S(=O)(=O)O)c45)ccc3C)c2)c1` [suramin, Suramin], the Kd on hRKIP P112L mutant (P112L mutant) was found to be 20.4 µM; on hRKIP K113A mutant, 87.2 µM; on hRKIP Y181A mutant (Y181A mutant), 711 µM; on hRKIP Y81A mutant (Y81A mutant), 29.7 µM; on hRKIP P74L mutant (P74L mutant) it was 37.1 µM; on hRKIP [2] (BLI, wild-type RKIP, 1:1 Langmuir binding model), 23.8 µM. Further, the Kd was 77.3 µM on hRKIP W173A mutant and 26 µM at hRKIP S109A mutant (S109A mutant). In addition, the kobs on hRKIP P112L mutant (P112L mutant) turned out to be 0.00037 s⁻¹; on hRKIP K113A mutant it was 0.00038 s⁻¹; on hRKIP Y181A mutant (Y181A mutant) it was 0.000177 s⁻¹; at hRKIP Y81A mutant (Y81A mutant), 0.000291 s⁻¹; at hRKIP P74L mutant (P74L mutant), 0.000367 s⁻¹; on hRKIP [2] (BLI, wild-type RKIP), 0.00368 s⁻¹. The kobs on hRKIP W173A mutant amounted to 0.000553 s⁻¹; on hRKIP S109A mutant (S109A mutant) it was 0.00295 s⁻¹. For the same compound, the koff at hRKIP P112L mutant (P112L mutant) was found to be 0.000166 s⁻¹; on hRKIP K113A mutant, 0.000295 s⁻¹; at hRKIP Y181A mutant (Y181A mutant), 0.000156 s⁻¹; on hRKIP Y81A mutant (Y81A mutant) it was 0.000158 s⁻¹; on hRKIP P74L mutant (P74L mutant), 0.000275 s⁻¹; on hRKIP [2] (BLI, wild-type RKIP, read-out: koff), 0.000207 s⁻¹. Further, the koff on hRKIP [2] (BLI, wild-type hRKIP, read-out: dissociation rate (koff)) worked out at 0.0002 s⁻¹; on hRKIP W173A mutant, 0.000241 s⁻¹; at hRKIP S109A mutant (S109A mutant), 0.00018 s⁻¹. Further, the kon was 8.14 M⁻¹ s⁻¹ at hRKIP P112L mutant (P112L mutant); 3.38 M⁻¹ s⁻¹ on hRKIP K113A mutant; 0.22 M⁻¹ s⁻¹ at hRKIP Y181A mutant (Y181A mutant); 5.31 M⁻¹ s⁻¹ at hRKIP Y81A mutant (Y81A mutant); 7.39 M⁻¹ s⁻¹ at hRKIP P74L mutant (P74L mutant); 8.69 M⁻¹ s⁻¹ on hRKIP [2] (BLI, wild-type RKIP, read-out: kon). In addition, the results for the kon at hRKIP W173A mutant and at hRKIP S109A mutant (S109A mutant) were 3.12 M⁻¹ s⁻¹ and 6.93 M⁻¹ s⁻¹, respectively. Also, the “change of affinity of suramin relative to hRKIP” value on hRKIP P112L mutant (P112L mutant vs wild type) is on record as “slightly increased affinity”. For the same compound, the “decrease of affinity of suramin relative to hRKIP” value is given as “more than 75%” on hRKIP Y181A mutant (Y181A mutant vs wild type), “around 20%” on hRKIP Y81A mutant (Y81A mutant vs wild type) and “more than 30%” at hRKIP P74L mutant (P74L mutant vs wild type). Further, the “increase of ERK phosphorylation level” value in data set [3] is “around 3 times”. In addition, the “higher affinity for binding to hRKIP compared with PE” value on hRKIP [2] (ratio of KD values, PE as native substrate) was “about 370 fold”. For the same compound, the IC50 in the data set with HEK293T cell turned out to be 479 µM. Besides, the “decrease of binding affinity of suramin relative to hRKIP” value at hRKIP S109A mutant (S109A mutant vs wild type) is on record as “around 10%”. Besides, the “maximal tolerant concentration for cell viability” value in [4] came out at 160 µM. Moreover, the “enhancement of phosphorylation level of p-ERK” value in [5] was “around 48%”.
